Test results reported in PubChem BioAssay AID1996.
≈ marks a conversion by molar mass, not a printed value.

Settings: buffer; pH 7.4; 200.0 µM

| Compound | solubility kinetic [µg/mL] |
| --- | --- |
| COc1ccnc2c1c(=O)n(Cc1ccc(Cl)cc1)c(=O)n2C | 9.3 (≈ 28 µM) |
| O=C(O)CCC(=O)Nc1cccc(C(=O)c2ccccc2)c1 | > 44.6 |
| CN(C)S(=O)(=O)c1cccc(NC(=O)COC(=O)c2cccnc2Cl)c1 | > 59.7 |
| CC(C)CN(Cc1cc(=O)oc2cc3c(cc12)CCCC3)CC(C)C | 1.1 (≈ 3.22 µM) |
| Nc1ccc(Cl)c(S(=O)(=O)Nc2ccccc2Cl)c1 | > 47.6 |
| COc1cc(C(=O)Nc2cccc(C(C)=O)c2)cc(OC)c1OC | > 49.4 |
| Cc1cc(C)cc(NC(=O)CS(=O)(=O)c2ccccc2)c1 | 44.2 (≈ 146 µM) |
| CC(C)NC(=O)c1ccc(S(=O)(=O)N(C)C)cc1 | > 40.6 |
| O=C(NCC1CCCCC1)c1ccc(Br)o1 | > 42.9 |
| Cc1nc(N)sc1-c1csc(Nc2cccc(O)c2)n1 | 34.1 (≈ 112 µM) |
| CCOC(=O)Cc1csc(NC(=O)Nc2cccs2)n1 | 18.4 (≈ 59.1 µM) |
| Cc1noc(C)c1S(=O)(=O)N(Cc1ccccc1)C(C)C | 36.5 (≈ 118 µM) |
| N#Cc1ccc(NC(=O)CCNC(=O)c2ccco2)cc1Cl | 5 (≈ 15.7 µM) |
| O=C1NC(=S)N/C1=C\C=C\c1ccccc1 | 1.7 (≈ 7.38 µM) |
| O=[N+]([O-])c1ccc(CS(=O)(=O)c2ccc(Cl)cc2)cc1 | 3.4 (≈ 10.9 µM) |
| N#Cc1cc(Cl)c(NCC2CCCO2)cc1C#N (stereo unspecified) | 18.2 (≈ 69.5 µM) |
| CC(=O)CC(C)(C)Nc1nc2cc([N+](=O)[O-])ccc2o1 | 1.1 (≈ 3.97 µM) |
| CC(=O)Nc1ccc(/C=C(\C#N)C(N)=O)cc1 | 16.8 (≈ 73.3 µM) |
| Cc1cccc(OCCSc2nc(N)cc(N)n2)c1 | > 41.5 |
| C/C=C/c1ccc(OCC(=O)Nc2ccncc2)c(OC)c1 | 42.1 (≈ 141 µM) |
| NS(=O)(=O)c1ccc(Nc2nc(-c3cccnc3)cs2)cc1 | < 0.2 |
| CCNC(=O)COC(=O)/C=C/c1cccs1 | > 35.9 |
| O=C(NC1CC2CCCC(C1)N2C(=O)Nc1ccccc1Cl)C1CC1 (stereo unspecified) | > 54.3 |
| COC(=O)c1cccc(NC(=O)CCNC(=O)c2ccco2)c1 | > 47.4 |
| CCOc1ccc(/C=N/NC(=O)Cn2ccnc2C)cc1 | > 42.9 |

| Compound | solubility kinetic [µg/mL] |
| --- | --- |
| COc1ccc(NC(=O)COC(=O)CC2CCCC2)cc1 | > 43.7 |
| Clc1cccc(-c2csc(Nc3cccnc3)n2)c1 | < 0.2 |
| CCn1c(/C=C2\C(=O)N(C(C)C)c3ccccc32)nc2ccccc2c1=O | 22.2 (≈ 61.8 µM) |
| CCOC(=O)C(O)(c1ccc(NC(=O)NC)cc1)C(F)(F)F (stereo unspecified) | > 48 |
| CC12CC3CC(C)(C1)CC(C(=O)NCc1ccncc1)(C3)C2 | > 44.8 |
| CN1[C@@H](CC(=O)c2ccccc2)CCC[C@H]1C[C@H](O)c1ccccc1.Cl | > 56.1 |
| CN(C)c1ccc(/C=C/c2cccc[n+]2[O-])cc1 | > 36 |
| CC1CCC(NC(=O)COC(=O)c2cccnc2Cl)CC1 (stereo unspecified) | > 46.6 |
| CCc1nc(SCC(=O)O)c(C#N)c2c1CCCC2 | > 41.5 |
| CCC1(C)Cc2ccccc2-c2nc(SC)[nH]c(=O)c21 (stereo unspecified) | < 0.3 |
| O=C(CCSCc1ccccc1Cl)NCc1ccco1 | > 46.5 |
| O=C(O)CSCc1nc2cccnc2n1C1CCCCC1 | 42.1 (≈ 138 µM) |
| COC(=O)Cc1nc(Nc2ccccc2)sc1C | 34.3 (≈ 131 µM) |
| O=C(c1ccccc1)C(Nc1ccccn1)c1ccccc1 (stereo unspecified) | 27.8 (≈ 96.4 µM) |
| CCc1cccc(NS(=O)(=O)c2c(C)[nH]c(=O)[nH]c2=O)c1 | > 46.4 |
| Nc1nnc(SCc2c(F)cccc2Cl)s1 | > 41.4 |
| S=c1[nH]ccn1-c1cccc(Cl)c1Cl | > 36.8 |
| CC(=O)NS(=O)(=O)c1ccc(NC(=O)C(C)NS(=O)(=O)/C=C/c2ccccc2)cc1 (stereo unspecified) | 63.3 (≈ 140 µM) |
| CCN1CCN(c2ccc(S(=O)(=O)N3CCCC3)cn2)CC1 | 34.6 (≈ 107 µM) |
| CCCC(=O)OCC(=O)c1[nH]c(C)c(C(C)=O)c1C | > 39.8 |
| CCCCCc1cc(O)c2c3c(c(=O)oc2c1)CN(C)CC3 | < 0.6 |
| CC(C)n1cc(/C=C2/NC(=O)NC2=O)c2ccccc21 | 0.7 (≈ 2.6 µM) |
| Cn1cc(S(=O)(=O)Oc2ccccc2)c(=O)n(C)c1=O | 39.5 (≈ 133 µM) |
| Cc1ccc(CC(=O)OCC(=O)c2ccc[nH]2)cc1C | 10.9 (≈ 40.2 µM) |
| C[n+]1ccccc1/C=N/O.[Cl-] | > 25.9 |

Results, then the molecule that gave them:

| solubility kinetic [µg/mL] | Compound |
| --- | --- |
| 2.3 (≈ 5.31 µM) | O=S(=O)(Nc1ccccc1N1CCOCC1)c1c(F)cc(F)cc1Br |
| < 0.4 | C=Cc1ccc(C(=O)NC2CCCN(Cc3ccccc3F)C2)cc1 (stereo unspecified) |
| < 0.5 | Cc1cc(Cl)c2ccc3ccccc3c2n1 |
| 38.6 (≈ 128 µM) | COc1ccccc1C1CCN(C(=O)C2CCCCC2)CC1 |
| > 54.1 | COc1ccccc1NS(=O)(=O)c1cccc(C(=O)N2CCCC2)c1 |
| > 57.6 | Cc1c(NC(=O)CSCc2ccc(Cl)cc2Cl)cccc1C(=O)O |
| 1.2 (≈ 4.19 µM) | Cc1ccc(Cn2c(=O)n(C)c(=O)c3sccc32)cc1 |
| > 49.8 | COC(=O)C1CCN(S(=O)(=O)Cc2ccccc2Cl)CC1 |
| 40 (≈ 124 µM) | COc1ccc(C2c3sc(=O)[nH]c3SCC2C(N)=O)cc1 (stereo unspecified) |
| 23.2 (≈ 61.3 µM) | CC1(c2ccccc2)NC(=O)N(CC(=O)N2CC(=O)Nc3ccccc32)C1=O (stereo unspecified) |
| 40.9 (≈ 120 µM) | COc1ccc(C2(NC(C)=O)CCN(Cc3cccnc3)CC2)cc1 |
| > 46.5 | O=C(O)C1CCN(S(=O)(=O)c2ccc(Cl)s2)CC1 |
| 12.7 (≈ 72.9 µM) | c1ccc2c(c1)NCC1CCCN21 (stereo unspecified) |
| 28 (≈ 115 µM) | Cc1cc(Nc2ccc(C(=O)O)cc2)nc(N)n1 |
| > 55.6 | O=C(CSc1nnc(NC(=O)c2c(F)cccc2F)s1)NC1CC1 |
| 12.6 (≈ 37.7 µM) | O=C(Cc1cccs1)N1CCN=C1SCc1cccc(F)c1 |
| 34.9 (≈ 132 µM) | Cc1ccc(S(=O)(=O)N2CC3CCCC2C3)cc1 (stereo unspecified) |
| > 45.7 | CCC(Oc1ccc(C)c(C)c1)C(=O)N1CCCN(C)CC1 (stereo unspecified) |
| 14.8 (≈ 64.3 µM) | S=c1nccc(-c2ccc3c(c2)CCO3)[nH]1 |
| 4.4 (≈ 9.16 µM) | Cc1ccc(S(=O)(=O)N2CCOCC2)cc1NC(=O)COc1ccccc1Cc1ccccc1 |
| < 0.6 | Cc1ccc(OCCn2c(=O)oc3ccc(C)cc32)cc1 |
| > 51.4 | Cc1nc(N2CCN(Cc3ccc4c(c3)OCO4)CC2)[nH]c(=O)c1C |
| > 48.1 | Cc1csc(SCC(=O)Nc2ccc3[nH]c(=O)[nH]c3c2)n1 |
| 2.4 (≈ 9.03 µM) | O=C(O/N=C/c1ccc(Cl)cc1)C1CCCCC1 |

| solubility kinetic [µg/mL] | Compound |
| --- | --- |
| 15 (≈ 50.7 µM) | O=S(=O)(c1cccc2cccc(Cl)c12)N1CCCC1 |
| 15.4 (≈ 54 µM) | CC(=O)Nc1ccc(OCc2ccc3c(c2)OCO3)cc1 |
| < 0.2 | COc1cc([N+](=O)[O-])ccc1NC(=O)Nc1ccc2c(c1)OCCO2 |
| 12 (≈ 35.9 µM) | O=S(=O)(Nc1ccc(N2CCCCC2)cc1)c1ccccc1F |
| 49.2 (≈ 138 µM) | Cc1ccc(N(CC(=O)NC2CCCC2)C(=O)c2ccc(C)s2)cc1 |
| > 39.8 | COc1ccc(-c2nc(C(=O)O)cs2)cc1OC |
| 4.9 (≈ 14.8 µM) | COC(=O)c1cc(NC(=O)c2ccc(F)cc2)cc(C(=O)OC)c1 |
| > 42.4 | O=C(NCC(=O)N1CCOCC1)c1ccc(Cl)cc1 |
| < 0.2 | COc1ccc2cc(C#N)c(Nc3cccc(F)c3)nc2c1 |
| 1.1 (≈ 4.07 µM) | O=C(NC1CCCCC1)C(=O)c1c[nH]c2ccccc12 |
| > 46.7 | Cc1ccc(C)c(S(=O)(=O)N2CCC3(CC2)OCCO3)c1 |
| > 52.1 | Cc1ccc(C)c(S(=O)(=O)NC(C)C(=O)NCc2ccccn2)c1 (stereo unspecified) |
| 3.5 (≈ 12.7 µM) | Cc1cnc(NC(=O)c2ccc3ncsc3c2)s1 |
| 39.1 (≈ 146 µM) | Cc1ccc(C(=O)N2CC=C(c3ccccc3)CC2)o1 |
| 37.6 (≈ 137 µM) | Cc1nc([N+](=O)[O-])c(C(=O)OCc2ccccc2)n1C |
| > 49 | O=C(CN1C(=O)NC(Cc2c[nH]c3ccccc23)C1=O)NC1CC1 (stereo unspecified) |
| 9.6 (≈ 35.6 µM) | COC(=O)c1cc(-c2cccs2)nc2ccccc12 |
| > 45.5 | O=C(c1ccc(-n2cccn2)cc1)N1CCc2ccccc2C1 |
| 38.4 (≈ 127 µM) | COc1ccc(N2CCOCC2)c(NC(=O)c2ccco2)c1 |
| > 49.5 | O=C(Nc1cccc(F)c1)c1ccc(Cn2cc([N+](=O)[O-])cn2)o1 |
| > 41.6 | COc1ccc(C2NC(=O)N(C)C(C)=C2[N+](=O)[O-])cc1 (stereo unspecified) |
| > 53.3 | COc1ccc(C(=O)OCC(=O)N2CCc3ccccc3C2)cc1OC |
| > 45.7 | Cc1ccc2c(c1)N(CC(=O)NCC1CCCO1)C(=O)CO2 (stereo unspecified) |
| > 43.4 | CN1CCCN(C(=O)CNC(=O)Cc2ccccc2)CC1 |

| solubility kinetic [µg/mL] | Compound |
| --- | --- |
| > 41.5 | Cc1cc[n+](CC(=O)Nc2cccc(C)c2)cc1.[Cl-] |
| > 34.7 | O=c1[nH]cnc2onc(-c3ccc(F)cc3)c12 |
| > 39.5 | Cc1nc([N+](=O)[O-])cn1CC(=O)c1ccc(F)cc1 |
| 0.9 (≈ 2.34 µM) | O=C(NC(=S)NCc1cccnc1)c1cc(Br)ccc1Cl |
| > 34.8 | COc1ccc2[nH]cc(CCNC(C)=O)c2c1 |
| 26.9 (≈ 78.5 µM) | O=C(Nc1ccccc1Cl)c1cccc(NC(=O)C2CCCC2)c1 |
| > 31.7 | Cc1nnc(NN2CCOCC2)[nH]c1=O |
| 29.6 (≈ 127 µM) | Cc1ccc(C(=O)N2CC(=O)NC(=O)C2)cc1 |
| > 41.4 | O=C(c1cc(-c2ccc(F)cc2)on1)N1CCOCC1 |
| > 49 | CN(C(=O)COC(=O)c1ccc2ccccc2n1)C1CCCCC1 |
| > 42.3 | CCOC(=O)C1=C(Nc2ccc(Cl)cc2)OCC1=O |
| 25.6 (≈ 86.4 µM) | COc1ccc(C(=O)Nc2ccccc2N2CCCC2)cc1 |
| 36.9 (≈ 135 µM) | Cc1cccc(C(=O)NCC(c2ccco2)N(C)C)c1 (stereo unspecified) |
| 3.3 (≈ 9.29 µM) | CN1CCN(C(=S)c2ccc(-c3cc(Cl)ccc3Cl)o2)CC1 |
| > 54.2 | O=C(/C=C/c1ccccc1)N(Cc1cccs1)C1CCS(=O)(=O)C1 (stereo unspecified) |
| 15.8 (≈ 48.1 µM) | COc1ccc(OCC(=O)Nc2ccc3nc(C)sc3c2)cc1 |
| 25.7 (≈ 100 µM) | Fc1ccc(Nc2ccnc(C(F)(F)F)c2)cc1 |
| 5.2 (≈ 15.5 µM) | Cc1ccc(NC(=O)CN2C(=O)N/C(=C\c3cccnc3)C2=O)cc1 |
| 20.9 (≈ 74.6 µM) | O=C(NCc1ccccc1F)c1ccc2ccccc2n1 |
| 3.1 (≈ 9.88 µM) | Cc1onc(-c2ccccc2)c1C(=O)Nc1ccc(Cl)cn1 |
| > 37.2 | CCn1c(C)cc(=O)cc1-c1ccc(Cl)cc1 |
| > 47.6 | O=[N+]([O-])c1cc([N+](=O)[O-])c2nonc2c1Nc1ccccc1O |
| 48.8 (≈ 149 µM) | Cc1cc(C)c(C)c(S(=O)(=O)NCCN2CCOCC2)c1C |
